Here are results for 15 molecules from patent US20250230193A1, “CYCLIC COMPOUND HAVING SELECTIVE KRAS INHIBITORY EFFECT ON HRAS AND NRAS” (CHUGAI SEIYAKU KABUSHIKI KAISHA, priority 2022, published 2025).

Experiment [1] concerns the target GDP-bound HRAS wild-type protein (Homo sapiens, UniProt P01112). As to the kind of experiment: Binding to HRAS by surface plasmon resonance (SPR), Single Cycle Kinetics. To be noted: SPR; KD ratio class.
The target in experiment [2] is GDP-bound NRAS wild-type protein (Homo sapiens, UniProt P01111). As to the kind of experiment: Binding to NRAS by surface plasmon resonance (SPR), Single Cycle Kinetics. To be noted: SPR; KD ratio class.
Chain of GDP-bound NRAS wild-type protein (P01111 whole entry): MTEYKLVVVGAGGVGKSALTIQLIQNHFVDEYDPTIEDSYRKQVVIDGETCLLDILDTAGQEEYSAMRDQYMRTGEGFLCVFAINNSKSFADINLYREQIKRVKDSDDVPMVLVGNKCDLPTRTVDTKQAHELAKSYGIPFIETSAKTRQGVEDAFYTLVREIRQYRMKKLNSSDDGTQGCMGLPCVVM

Chain of GDP-bound HRAS wild-type protein (P01112 whole entry): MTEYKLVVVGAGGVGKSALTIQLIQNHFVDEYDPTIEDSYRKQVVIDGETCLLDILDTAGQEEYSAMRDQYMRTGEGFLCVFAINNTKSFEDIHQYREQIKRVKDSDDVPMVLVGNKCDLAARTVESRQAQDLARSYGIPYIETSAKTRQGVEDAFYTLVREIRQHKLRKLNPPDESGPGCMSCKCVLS

For `CCO[C@@H]1C[C@H]2C(=O)NC3(CCC3)C(=O)N(C)[C@@H](C3CCCC3)C(=O)N(C)[C@H](C(=O)N(CC)CC)CC(=O)N(C)[C@@H](C)C(=O)N[C@@H]([C@@H](C)CC)C(=O)N(C)CC(=O)N(C)[C@H]3C/C=C\CCN(C3=O)[C@@H](Cc3ccc(C(F)(F)F)cc3)C(=O)N(C)CC(=O)N[C@@H](CCc3cc(F)c(C(F)(F)F)c(F)c3)C(=O)N2C1` [PP1308], in experiment [1], the “HRAS/KRAS (ratio of KD value for GDP-bound HRAS wild-type protein to KD value for KRAS)” value is “A (a compound having 10 or more and less than 20 is denoted as A)”. Moreover, the “NRAS/KRAS (ratio of KD value for GDP-bound NRAS wild-type protein to KD value for KRAS)” value in experiment [2] is “A (a compound having 10 or more and less than 20 is denoted as A)”.
Take `CCO[C@@H]1C[C@H]2C(=O)NC3(CCC3)C(=O)N(C)[C@@H](C3CCCC3)C(=O)N(C)[C@H](C(=O)N(CC)CC)CC(=O)N(C)[C@@H](CC(F)F)C(=O)N[C@@H]([C@@H](C)CC)C(=O)N(C)CC(=O)N(C)[C@H]3C/C=C\CCN(C3=O)[C@@H](Cc3ccc(C(F)(F)F)cc3)C(=O)N(C)CC(=O)N[C@@H](CCc3cc(F)c(C(F)(F)F)c(F)c3)C(=O)N2C1` [PP1309]: the “HRAS/KRAS (ratio of KD value for GDP-bound HRAS wild-type protein to KD value for KRAS)” value in experiment [1] is “A (a compound having 10 or more and less than 20 is denoted as A)”. Also, in experiment [2], the “NRAS/KRAS (ratio of KD value for GDP-bound NRAS wild-type protein to KD value for KRAS)” value was “A (a compound having 10 or more and less than 20 is denoted as A)”.
For `CCC[C@H]1C(=O)N[C@@H]([C@@H](C)CC)C(=O)N(C)CC(=O)N(C)[C@H]2C/C=C\CCN(C2=O)[C@@H](Cc2ccc(C(F)(F)F)cc2)C(=O)N(C)CC(=O)N[C@@H](CCc2cc(F)c(C(F)(F)F)c(F)c2)C(=O)N2C[C@H](OCC)C[C@H]2C(=O)NC2(CCC2)C(=O)N(C)[C@@H](C2CCCC2)C(=O)N(C)[C@H](C(=O)N(CC)CC)CC(=O)N1C` [PP1310], the “HRAS/KRAS (ratio of KD value for GDP-bound HRAS wild-type protein to KD value for KRAS)” value in experiment [1] is “A (a compound having 10 or more and less than 20 is denoted as A)”. In experiment [2], the “NRAS/KRAS (ratio of KD value for GDP-bound NRAS wild-type protein to KD value for KRAS)” value is “AA (a compound having 20 or more is denoted as AA)”.
Turning to `CCC[C@H]1C(=O)N[C@@H]([C@@H](C)CC)C(=O)N(C)CC(=O)N(C)[C@H]2C/C=C\CCN(C2=O)[C@@H](Cc2ccc(C(F)(F)F)cc2)C(=O)N(C)CC(=O)N[C@@H](CCc2cc(F)c(C(F)(F)F)c(F)c2)C(=O)N2C[C@H](OCC)C[C@H]2C(=O)NC2(CCC2)C(=O)N(C)[C@@H](C2CCCC2)C(=O)N(C)[C@H](C(=O)N2CC3CCC(C2)O3)CC(=O)N1C` [PP1315], the “HRAS/KRAS (ratio of KD value for GDP-bound HRAS wild-type protein to KD value for KRAS)” value in experiment [1] is “A (a compound having 10 or more and less than 20 is denoted as A)”. The “NRAS/KRAS (ratio of KD value for GDP-bound NRAS wild-type protein to KD value for KRAS)” value in experiment [2] is “AA (a compound having 20 or more is denoted as AA)”.
For `CCO[C@@H]1C[C@H]2C(=O)NC3(CCC3)C(=O)N(C)[C@@H](C3CCCC3)C(=O)N(C)[C@H](C(=O)N(C)CCOC)CC(=O)N(C)[C@@H](CC)C(=O)N[C@@H]([C@@H](C)CC)C(=O)N(C)CC(=O)N(C)[C@H]3C/C=C\CCN(C3=O)[C@@H](Cc3ccc(C(F)(F)F)cc3)C(=O)N(C)CC(=O)N[C@@H](CCc3cc(F)c(C(F)(F)F)c(F)c3)C(=O)N2C1` [PP1316], in experiment [1], the “HRAS/KRAS (ratio of KD value for GDP-bound HRAS wild-type protein to KD value for KRAS)” value is “A (a compound having 10 or more and less than 20 is denoted as A)”. Also, the “NRAS/KRAS (ratio of KD value for GDP-bound NRAS wild-type protein to KD value for KRAS)” value in experiment [2] is “A (a compound having 10 or more and less than 20 is denoted as A)”.
Take `CCO[C@@H]1C[C@H]2C(=O)NC3(CCC3)C(=O)N(C)[C@@H](C3CCCC3)C(=O)N(C)[C@H](C(=O)N(C)CCOC)CC(=O)N(C)[C@@H](CC(C)C)C(=O)N[C@@H]([C@@H](C)CC)C(=O)N(C)CC(=O)N(C)[C@H]3C/C=C\CCN(C3=O)[C@@H](Cc3ccc(C(F)(F)F)cc3)C(=O)N(C)CC(=O)N[C@@H](CCc3cc(F)c(C(F)(F)F)c(F)c3)C(=O)N2C1` [PP1317]: the “HRAS/KRAS (ratio of KD value for GDP-bound HRAS wild-type protein to KD value for KRAS)” value in experiment [1] is “B (a compound having 3 or more and less than 10 is denoted as B)”. Further, the “NRAS/KRAS (ratio of KD value for GDP-bound NRAS wild-type protein to KD value for KRAS)” value in experiment [2] is “A (a compound having 10 or more and less than 20 is denoted as A)”.
Turning to `CCO[C@@H]1C[C@H]2C(=O)NC3(CCC3)C(=O)N(C)[C@@H](C3CCCC3)C(=O)N(C)[C@H](C(=O)N(C)CCOC)CC(=O)N(C)[C@@H](CC3CC3)C(=O)N[C@@H]([C@@H](C)CC)C(=O)N(C)CC(=O)N(C)[C@H]3C/C=C\CCN(C3=O)[C@@H](Cc3ccc(C(F)(F)F)cc3)C(=O)N(C)CC(=O)N[C@@H](CCc3cc(F)c(C(F)(F)F)c(F)c3)C(=O)N2C1` [PP1318], in experiment [1], the “HRAS/KRAS (ratio of KD value for GDP-bound HRAS wild-type protein to KD value for KRAS)” value was “A (a compound having 10 or more and less than 20 is denoted as A)”. The “NRAS/KRAS (ratio of KD value for GDP-bound NRAS wild-type protein to KD value for KRAS)” value in experiment [2] is “A (a compound having 10 or more and less than 20 is denoted as A)”.
For the molecule `CCO[C@@H]1C[C@H]2C(=O)NC3(CCC3)C(=O)N(C)[C@@H](C3CCCC3)C(=O)N(C)[C@H](C(=O)N(C)CCOC)CC(=O)N(C)[C@@H](C)C(=O)N[C@@H]([C@@H](C)CC)C(=O)N(C)CC(=O)N(C)[C@H]3C/C=C\CCN(C3=O)[C@@H](Cc3ccc(C(F)(F)F)cc3)C(=O)N(C)CC(=O)N[C@@H](CCc3cc(F)c(C(F)(F)F)c(F)c3)C(=O)N2C1` [PP1319], the “HRAS/KRAS (ratio of KD value for GDP-bound HRAS wild-type protein to KD value for KRAS)” value in experiment [1] is “B (a compound having 3 or more and less than 10 is denoted as B)”. The “NRAS/KRAS (ratio of KD value for GDP-bound NRAS wild-type protein to KD value for KRAS)” value in experiment [2] is “A (a compound having 10 or more and less than 20 is denoted as A)”.
As for `CCO[C@@H]1C[C@H]2C(=O)NC3(CCC3)C(=O)N(C)[C@@H](C3CCCC3)C(=O)N(C)[C@H](C(=O)N(C)CCOC)CC(=O)N(C)[C@@H](CC(F)F)C(=O)N[C@@H]([C@@H](C)CC)C(=O)N(C)CC(=O)N(C)[C@H]3C/C=C\CCN(C3=O)[C@@H](Cc3ccc(C(F)(F)F)cc3)C(=O)N(C)CC(=O)N[C@@H](CCc3cc(F)c(C(F)(F)F)c(F)c3)C(=O)N2C1` [PP1320], the “HRAS/KRAS (ratio of KD value for GDP-bound HRAS wild-type protein to KD value for KRAS)” value in experiment [1] was “A (a compound having 10 or more and less than 20 is denoted as A)”. Also, in experiment [2], the “NRAS/KRAS (ratio of KD value for GDP-bound NRAS wild-type protein to KD value for KRAS)” value was “A (a compound having 10 or more and less than 20 is denoted as A)”.
For the molecule `CCO[C@@H]1C[C@H]2C(=O)NC3(CCC3)C(=O)N(C)[C@@H](C3CCCC3)C(=O)N(C)[C@H](C(=O)N(C)CCOC)CC(=O)N(C)[C@@H](CC)C(=O)N[C@@H]([C@@H](C)CC)C(=O)N(C)CC(=O)N(C)[C@H]3C/C=C\CCN(C3=O)[C@@H](Cc3ccc(C(F)(F)F)cc3)C(=O)N(C)CC(=O)N[C@@H](CCc3ccc(C(F)(F)F)c(OC)c3)C(=O)N2C1` [PP1321], in experiment [1], the “HRAS/KRAS (ratio of KD value for GDP-bound HRAS wild-type protein to KD value for KRAS)” value is “B (a compound having 3 or more and less than 10 is denoted as B)”. For the same molecule, the “NRAS/KRAS (ratio of KD value for GDP-bound NRAS wild-type protein to KD value for KRAS)” value in experiment [2] is “A (a compound having 10 or more and less than 20 is denoted as A)”.
With `CCO[C@@H]1C[C@H]2C(=O)NC3(CCC3)C(=O)N(C)[C@@H](C3CCCC3)C(=O)N(C)[C@H](C(=O)N(C)CCOC)CC(=O)N(C)[C@@H](CC)C(=O)N[C@@H]([C@@H](C)CC)C(=O)N(C)CC(=O)N(C)[C@H]3C/C=C\CCN(C3=O)[C@@H](Cc3ccc(C(F)(F)F)cc3)C(=O)N(C)CC(=O)N[C@@H](CCc3ccc4sccc4c3)C(=O)N2C1` [PP1322], the “HRAS/KRAS (ratio of KD value for GDP-bound HRAS wild-type protein to KD value for KRAS)” value in experiment [1] was “A (a compound having 10 or more and less than 20 is denoted as A)”. Besides, in experiment [2], the “NRAS/KRAS (ratio of KD value for GDP-bound NRAS wild-type protein to KD value for KRAS)” value is “A (a compound having 10 or more and less than 20 is denoted as A)”.
`CCO[C@@H]1C[C@H]2C(=O)NC3(CCC3)C(=O)N(C)[C@@H](C3CCCC3)C(=O)N(C)[C@H](C(=O)N(C)CCOC)CC(=O)N(C)[C@@H](CC(C)C)C(=O)N[C@@H]([C@@H](C)CC)C(=O)N(C)CC(=O)N(C)[C@H]3C/C=C\CCN(C3=O)[C@@H](Cc3ccc(C(F)(F)F)cc3)C(=O)N(C)CC(=O)N[C@@H](CCc3ccc(C(F)(F)F)c(OC)c3)C(=O)N2C1` [PP1324]: the “HRAS/KRAS (ratio of KD value for GDP-bound HRAS wild-type protein to KD value for KRAS)” value in experiment [1] is “A (a compound having 10 or more and less than 20 is denoted as A)”. The “NRAS/KRAS (ratio of KD value for GDP-bound NRAS wild-type protein to KD value for KRAS)” value in experiment [2] was “A (a compound having 10 or more and less than 20 is denoted as A)”.
Consider `CCO[C@@H]1C[C@H]2C(=O)NC3(CCC3)C(=O)N(C)[C@@H](C3CCCC3)C(=O)N(C)[C@H](C(=O)N(C)CCOC)CC(=O)N(C)[C@@H](CC(C)C)C(=O)N[C@@H]([C@@H](C)CC)C(=O)N(C)CC(=O)N(C)[C@H]3C/C=C\CCN(C3=O)[C@@H](Cc3ccc(C(F)(F)F)cc3)C(=O)N(C)CC(=O)N[C@@H](CCc3ccc4sccc4c3)C(=O)N2C1` [PP1325], for which, in experiment [1], the “HRAS/KRAS (ratio of KD value for GDP-bound HRAS wild-type protein to KD value for KRAS)” value is “A (a compound having 10 or more and less than 20 is denoted as A)”. In addition, the “NRAS/KRAS (ratio of KD value for GDP-bound NRAS wild-type protein to KD value for KRAS)” value in experiment [2] was “A (a compound having 10 or more and less than 20 is denoted as A)”.
Regarding `CCO[C@@H]1C[C@H]2C(=O)NC3(CCC3)C(=O)N(C)[C@@H](C3CCCC3)C(=O)N(C)[C@H](C(=O)N(C)CCOC)CC(=O)N(C)[C@@H](CC(C)C)C(=O)N[C@@H]([C@@H](C)CC)C(=O)N(C)CC(=O)N(C)[C@H]3C/C=C\CCN(C3=O)[C@@H](Cc3ccc(C(F)(F)F)cc3)C(=O)N(C)CC(=O)N[C@@H](CCc3ccc(Cl)c(Cl)c3)C(=O)N2C1` [PP1326], the “HRAS/KRAS (ratio of KD value for GDP-bound HRAS wild-type protein to KD value for KRAS)” value in experiment [1] is “A (a compound having 10 or more and less than 20 is denoted as A)”. Moreover, in experiment [2], the “NRAS/KRAS (ratio of KD value for GDP-bound NRAS wild-type protein to KD value for KRAS)” value is recorded as “AA (a compound having 20 or more is denoted as AA)”.
For `CCO[C@@H]1C[C@H]2C(=O)NC3(CCC3)C(=O)N(C)[C@@H](C3CCCC3)C(=O)N(C)[C@H](C(=O)N(C)CCOC)CC(=O)N(C)[C@@H](CC3CC3)C(=O)N[C@@H]([C@@H](C)CC)C(=O)N(C)CC(=O)N(C)[C@H]3C/C=C\CCN(C3=O)[C@@H](Cc3ccc(C(F)(F)F)cc3)C(=O)N(C)CC(=O)N[C@@H](CCc3ccc(C(F)(F)F)c(OC)c3)C(=O)N2C1` [PP1327], the “HRAS/KRAS (ratio of KD value for GDP-bound HRAS wild-type protein to KD value for KRAS)” value in experiment [1] was “A (a compound having 10 or more and less than 20 is denoted as A)”. Besides, the “NRAS/KRAS (ratio of KD value for GDP-bound NRAS wild-type protein to KD value for KRAS)” value in experiment [2] is “A (a compound having 10 or more and less than 20 is denoted as A)”.
